Our source for the inhibition values is ChEMBL document CHEMBL1149865, “Pyridinium alkaloid-coupled secoiridoids from the flower buds of Lonicera japonica” (2008).

The structures appear in SMILES notation.

The assay is described as follows: Antiinflammatory activity in rat polymorphonuclear leukocytes assessed as inhibition of platelet activating factor-induced release of glucuronidase at 10 uM after 15 mins. The class given is functional. As to conditions: 0.25 h.
`C=C[C@H]1[C@H](O[C@@H]2O[C@H](CO)[C@@H](O)[C@H](O)[C@H]2O)OC=C(C(=O)OC)[C@H]1/C=C/c1cc(C(=O)[O-])c[n+](CCCC(=O)O)c1` [LONIJAPOSIDE A]: the inhibition at 10 µM is 11%.

Take `C=C[C@H]1[C@H](O[C@@H]2O[C@H](CO)[C@@H](O)[C@H](O)[C@H]2O)OC=C(C(=O)OC)[C@H]1/C=C/c1cc(C(=O)[O-])c[n+](CCO)c1` [LONIJAPOSIDE B]: the inhibition at 10 µM was found to be 35.8%.

`C=C[C@H]1[C@H](O[C@@H]2O[C@H](CO)[C@@H](O)[C@H](O)[C@H]2O)OC=C(C(=O)O)[C@H]1/C=C/c1cc(C(=O)[O-])c[n+](CCO)c1` [LONIJAPOSIDE C]: the inhibition at 10 µM was determined as 69.5%.
